How the values were obtained:
[1] = target: full-length activated BTK (wildtype) (Homo sapiens (Human), UniProt Q06187); assay: AlphaScreen assay, wild-type BTK; assay type: biochemical; settings: for inhibition at 10 µM: read-out: BTK % @ 10 uM, @ 10 uM
[2] = target: full-length activated BTK mutant C481S (Homo sapiens (Human), UniProt Q06187, C481S); assay: AlphaScreen assay, BTK mutant C481S; assay type: biochemical; settings: for inhibition at 10 µM: read-out: BTK-C481S % @ 10 uM, @ 10 uM
Sequence of full-length activated BTK mutant C481S (Q06187 whole entry C481S): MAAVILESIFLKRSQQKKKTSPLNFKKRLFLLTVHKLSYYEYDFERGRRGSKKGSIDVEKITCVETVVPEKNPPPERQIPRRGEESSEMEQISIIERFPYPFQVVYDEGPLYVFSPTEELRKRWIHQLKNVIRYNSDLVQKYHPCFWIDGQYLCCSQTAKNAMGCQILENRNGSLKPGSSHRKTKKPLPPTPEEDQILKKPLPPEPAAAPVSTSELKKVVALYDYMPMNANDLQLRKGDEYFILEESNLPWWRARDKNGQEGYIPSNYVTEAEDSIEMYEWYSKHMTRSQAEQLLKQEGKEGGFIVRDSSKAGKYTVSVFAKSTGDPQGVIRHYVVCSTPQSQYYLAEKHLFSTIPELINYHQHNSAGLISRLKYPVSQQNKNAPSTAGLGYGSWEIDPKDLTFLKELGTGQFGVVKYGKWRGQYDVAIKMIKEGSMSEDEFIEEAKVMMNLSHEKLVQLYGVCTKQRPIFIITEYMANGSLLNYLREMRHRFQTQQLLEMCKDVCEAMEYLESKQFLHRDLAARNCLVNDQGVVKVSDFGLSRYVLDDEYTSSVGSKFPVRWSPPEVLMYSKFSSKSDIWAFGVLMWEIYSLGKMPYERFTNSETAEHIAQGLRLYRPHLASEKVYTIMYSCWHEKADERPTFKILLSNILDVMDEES

Sequence of full-length activated BTK (wildtype) (Q06187 whole entry): as the sequence (Q06187 whole entry C481S) above, with S481C counted along it

IC50 [1] | IC50 [2] | inhibition at 10 µM [2] | inhibition at 10 µM [1] | SMILES
376 nM | 942 nM |  |  | Cn1cc(NC(=O)c2ccc(C(=O)c3c[nH]c4ncnc(N[C@@H]5CC[C@@H](CO)OC5)c34)c(Cl)c2)cn1 [Compound I-619, 3-chloro-4-(4-(((3R,6S)-6-(hydroxymethyl)tetrahydro-2H-pyran-3-yl)amino)-7H-pyrrolo[2,3-d]pyrimidine-5-carbonyl)-N-(1-methyl-1H-pyrazol-4-yl)benzamide]
598 nM |  | 70% |  | CN1CCN(C(=O)c2ccc(C(=O)c3c[nH]c4ncnc(N[C@@H]5CC[C@@H](CO)OC5)c34)c(Cl)c2)CC1 [Compound I-620, (3-chloro-4-(4-(((3R,6S)-6-(hydroxymethyl)tetrahydro-2H-pyran-3-yl)amino)-7H-pyrrolo[2,3-d]pyrimidine-5-carbonyl)phenyl)(4-methylpiperazin-1-yl)methanone]
571 nM |  | 85% |  | O=C(NC1CC2(COC2)C1)c1ccc(C(=O)c2c[nH]c3ncnc(N[C@@H]4CC[C@@H](CO)OC4)c23)c(Cl)c1 [Compound I-621, 3-chloro-4-(4-(((3R,6S)-6-(hydroxymethyl)tetrahydro-2H-pyran-3-yl)amino)-7H-pyrrolo[2,3-d]pyrimidine-5-carbonyl)-N-(2-oxaspiro[3.3]heptan-6-yl)benzamide]
847 nM |  | 62% |  | CN1CCN(C(=O)c2ccc(Cl)c(C(=O)c3c[nH]c4ncnc(N[C@@H]5CC[C@@H](CO)OC5)c34)c2)CC1 [Compound I-622, (4-chloro-3-(4-(((3R,6S)-6-(hydroxymethyl)tetrahydro-2H-pyran-3-yl)amino)-7H-pyrrolo[2,3-d]pyrimidine-5-carbonyl)phenyl)(4-methylpiperazin-1-yl)methanone]
124 nM | 185 nM |  |  | O=C(c1cc(C(=O)N2CCCCC2)ccc1Cl)c1c[nH]c2ncnc(N[C@@H]3CC[C@@H](CO)OC3)c12 [Compound I-623, (4-chloro-3-(4-(((3R,6S)-6-(hydroxymethyl)tetrahydro-2H-pyran-3-yl)amino)-7H-pyrrolo[2,3-d]pyrimidine-5-carbonyl)phenyl)(piperidin-1-yl)methanone]
1210 nM |  | 53% |  | COCCNC(=O)c1ccc(Cl)c(C(=O)c2c[nH]c3ncnc(N[C@@H]4CC[C@@H](CO)OC4)c23)c1 [Compound I-624, 4-chloro-3-(4-(((3R,6S)-6-(hydroxymethyl)tetrahydro-2H-pyran-3-yl)amino)-7H-pyrrolo[2,3-d]pyrimidine-5-carbonyl)-N-(2-methoxyethyl) benzamide]
110 nM | 170 nM |  |  | O=C(c1cc(C(=O)N2CCc3ccccc3C2)ccc1Cl)c1c[nH]c2ncnc(N[C@@H]3CC[C@@H](CO)OC3)c12 [Compound I-625, (4-chloro-3-(4-(((3R,6S)-6-(hydroxymethyl)tetrahydro-2H-pyran-3-yl)amino)-7H-pyrrolo[2,3-d]pyrimidine-5-carbonyl)phenyl)(3,4-dihydroisoquinolin-2(1H)-yl)methanone]
164 nM | 757 nM |  |  | O=C(NCCN1CCOCC1)c1ccc(Cl)c(C(=O)c2c[nH]c3ncnc(N[C@@H]4CC[C@@H](CO)OC4)c23)c1 [Compound I-626, 4-chloro-3-(4-(((3R,6S)-6-(hydroxymethyl)tetrahydro-2H-pyran-3-yl)amino)-7H-pyrrolo[2,3-d]pyrimidine-5-carbonyl)-N-(2-morpholinoethyl) benzamide]
777 nM | 664 nM |  |  | O=C(c1cc(C(=O)N2CCN(c3ccccn3)CC2)ccc1Cl)c1c[nH]c2ncnc(N[C@@H]3CC[C@@H](CO)OC3)c12 [Compound I-627, (4-chloro-3-(4-(((3R,6S)-6-(hydroxymethyl)tetrahydro-2H-pyran-3-yl)amino)-7H-pyrrolo[2,3-d]pyrimidine-5-carbonyl)phenyl)(4-(pyridin-2-yl)piperazin-1-yl)methanone]
59.7 nM | 161 nM |  |  | O=C(NCc1ccccc1)c1ccc(Cl)c(C(=O)c2c[nH]c3ncnc(N[C@@H]4CC[C@@H](CO)OC4)c23)c1 [Compound I-628, N-benzyl-4-chloro-3-(4-(((3R,6S)-6-(hydroxymethyl)tetrahydro-2H-pyran-3-yl)amino)-7H-pyrrolo[2,3-d]pyrimidine-5-carbonyl)benzamide]
89.5 nM | 804 nM |  |  | Cn1cc(NC(=O)c2ccc(Cl)c(C(=O)c3c[nH]c4ncnc(N[C@@H]5CC[C@@H](CO)OC5)c34)c2)cn1 [Compound I-629, 4-chloro-3-(4-(((3R,6S)-6-(hydroxymethyl)tetrahydro-2H-pyran-3-yl)amino)-7H-pyrrolo[2,3-d]pyrimidine-5-carbonyl)-N-(1-methyl-1H-pyrazol-4-yl)benzamide]
18.4 nM | 189 nM |  |  | N#Cc1cccc(NC(=O)c2ccc(Cl)c(C(=O)c3c[nH]c4ncnc(N[C@@H]5CC[C@@H](CO)OC5)c34)c2)c1 [Compound I-630, 4-chloro-N-(3-cyanophenyl)-3-(4-(((3R,6S)-6-(hydroxymethyl)tetrahydro-2H-pyran-3-yl)amino)-7H-pyrrolo[2,3-d]pyrimidine-5-carbonyl)benzamide]
52.1 nM | 177 nM |  |  | O=C(Nc1ccccc1)c1ccc(Cl)c(C(=O)c2c[nH]c3ncnc(N[C@@H]4CC[C@@H](CO)OC4)c23)c1 [Compound I-631, 4-chloro-3-(4-(((3R,6S)-6-(hydroxymethyl)tetrahydro-2H-pyran-3-yl)amino)-7H-pyrrolo[2,3-d]pyrimidine-5-carbonyl)-N-phenylbenzamide]
 |  | 66% | 84% | O=C(c1ccc(C(=O)N2CCOCC2)cc1)c1c[nH]c2ncnc(N[C@@H]3CC[C@@H](CO)OC3)c12 [Compound I-632, (4-(((3R,6S)-6-(hydroxymethyl)tetrahydro-2H-pyran-3-yl)amino)-7H-pyrrolo[2,3-d]pyrimidin-5-yl)(4-(morpholine-4-carbonyl)phenyl) methanone]
 |  | 50% | 77% | Cn1cc(NC(=O)c2ccc(C(=O)c3c[nH]c4ncnc(N[C@@H]5CC[C@@H](CO)OC5)c34)cc2)cn1 [Compound I-633, 4-(4-(((3R,6S)-6-(hydroxymethyl)tetrahydro-2H-pyran-3-yl)amino)-7H-pyrrolo[2,3-d]pyrimidine-5-carbonyl)-N-(1-methyl-1H-pyrazol-4-yl)benzamide]
620 nM | 690 nM |  |  | O=C(Nc1ccccc1)c1cccc(C(=O)c2c[nH]c3ncnc(N[C@@H]4CC[C@@H](CO)OC4)c23)c1 [Compound I-634, 3-(4-(((3R,6S)-6-(hydroxymethyl)tetrahydro-2H-pyran-3-yl)amino)-7H-pyrrolo[2,3-d]pyrimidine-5-carbonyl)-N-phenylbenzamide]
 |  | 49% | 73% | O=C(c1cccc(C(=O)N2CCOCC2)c1)c1c[nH]c2ncnc(N[C@@H]3CC[C@@H](CO)OC3)c12 [Compound I-635, (4-(((3R,6S)-6-(hydroxymethyl)tetrahydro-2H-pyran-3-yl)amino)-7H-pyrrolo[2,3-d]pyrimidin-5-yl)(3-(morpholine-4-carbonyl)phenyl) methanone]
 |  | 41% | 62% | COCCNC(=O)c1ccc(C(=O)c2c[nH]c3ncnc(N[C@@H]4CC[C@@H](CO)OC4)c23)cc1 [Compound I-636, 4-(4-(((3R,6S)-6-(hydroxymethyl)tetrahydro-2H-pyran-3-yl)amino)-7H-pyrrolo[2,3-d]pyrimidine-5-carbonyl)-N-(2-methoxyethyl)benzamide]
 |  | 55% | 76% | COCCNC(=O)c1cccc(C(=O)c2c[nH]c3ncnc(N[C@@H]4CC[C@@H](CO)OC4)c23)c1 [Compound I-637, 3-(4-(((3R,6S)-6-(hydroxymethyl)tetrahydro-2H-pyran-3-yl)amino)-7H-pyrrolo[2,3-d]pyrimidine-5-carbonyl)-N-(2-methoxyethyl)benzamide]
 |  | 54% | 63% | Cn1cc(NC(=O)c2cccc(C(=O)c3c[nH]c4ncnc(N[C@@H]5CC[C@@H](CO)OC5)c34)c2)cn1 [Compound I-638, 3-(4-(((3R,6S)-6-(hydroxymethyl)tetrahydro-2H-pyran-3-yl)amino)-7H-pyrrolo[2,3-d]pyrimidine-5-carbonyl)-N-(1-methyl-1H-pyrazol-4-yl)benzamide]
14.2 nM | 25.6 nM |  |  | O=C(Cc1ccccc1)Nc1ccc(C(=O)c2c[nH]c3ncnc(N[C@@H]4CC[C@@H](CO)OC4)c23)c(Cl)c1 [Compound I-639, N-(3-chloro-4-(4-(((3R,6S)-6-(hydroxymethyl)tetrahydro-2H-pyran-3-yl)amino)-7H-pyrrolo[2,3-d]pyrimidine-5-carbonyl)phenyl)-2-phenylacetamide]
69.5 nM | 203 nM |  |  | O=C(c1ccc(NC(=O)C2(c3ccccc3)CC2)cc1Cl)c1c[nH]c2ncnc(N[C@@H]3CC[C@@H](CO)OC3)c12 [Compound I-640, N-(3-chloro-4-(4-(((3R,6S)-6-(hydroxymethyl)tetrahydro-2H-pyran-3-yl)amino)-7H-pyrrolo[2,3-d]pyrimidine-5-carbonyl)phenyl)-1-phenylcyclopropane-1-carboxamide]
8.28 nM | 32.6 nM |  |  | O=C(COCc1ccccc1)Nc1ccc(C(=O)c2c[nH]c3ncnc(N[C@@H]4CC[C@@H](CO)OC4)c23)c(Cl)c1 [Compound I-641, 2-(benzyloxy)-N-(3-chloro-4-(4-(((3R,6S)-6-(hydroxymethyl)tetrahydro-2H-pyran-3-yl)amino)-7H-pyrrolo[2,3-d]pyrimidine-5-carbonyl)phenyl) acetamide]
251 nM | 203 nM |  |  | O=C(Nc1cccc(C(=O)c2c[nH]c3ncnc(N[C@@H]4CC[C@@H](CO)OC4)c23)c1)c1ccccc1 [Compound I-642, N-(3-(4-(((3R,6S)-6-(hydroxymethyl)tetrahydro-2H-pyran-3-yl)amino)-7H-pyrrolo[2,3-d]pyrimidine-5-carbonyl)phenyl)benzamide]

From patent US11020398B2, “Amino-pyrrolopyrimidinone compounds and methods of use thereof” (ArQule, Inc., priority 2016, dated 2021)
